Assay results as given in doi:10.1101/2020.10.25.354381v1, “Multi-dimensional digital bioassay platform based on an air-sealed femtoliter reactor array device” (biorxiv, 2020).

Legend:
[1] = tested on: T1, CiALP (calf intestinal ALP); assay: fluorogenic ALP assay, bulk microtiter plate, Hill fit; type: biochemical, Bos taurus; settings: […] 4-MUP, […] DEA-HCl, […] MgCl2, […] ZnSO4, pH […] TWEEN20, […] °C; […] min preincubation
T1 construct: gene ALPI; homodimeric metalloenzyme

[2] = molecular target: T2, EcALP (D101S, an active mutant of Escherichia coli ALP) (Escherichia coli, UniProt P00634, D123S); assay: as above; type: biochemical; settings: […] 4-MUP, […] DEA-HCl, […] MgCl2, […] ZnSO4, pH […] TWEEN20, […] °C; […] min preincubation; diluted cell-free synthesis mixture
T2 construct: gene phoA; D101S mutant, cell-free synthesis (PURExpress with disulfide bond enhancer), not purified; homodimeric metalloenzyme
T2 sequence (P00634 22-471 D123S): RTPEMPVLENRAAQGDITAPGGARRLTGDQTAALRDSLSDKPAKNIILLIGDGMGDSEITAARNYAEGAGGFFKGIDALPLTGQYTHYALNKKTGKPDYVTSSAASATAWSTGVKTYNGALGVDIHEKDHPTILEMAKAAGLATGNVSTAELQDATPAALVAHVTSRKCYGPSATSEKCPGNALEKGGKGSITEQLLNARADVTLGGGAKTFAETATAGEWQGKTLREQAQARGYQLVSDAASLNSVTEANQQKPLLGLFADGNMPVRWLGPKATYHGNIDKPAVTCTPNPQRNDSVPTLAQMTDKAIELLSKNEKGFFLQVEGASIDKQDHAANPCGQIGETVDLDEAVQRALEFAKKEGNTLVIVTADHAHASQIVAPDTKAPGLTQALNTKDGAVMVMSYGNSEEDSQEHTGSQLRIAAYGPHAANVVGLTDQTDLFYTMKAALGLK

SMILES	IC50 [1] [µM]	IC50 [2] [µM]
O=P(O)(O)O [Pi, phosphate]	1600	
[O]=[V]([OH])([OH])[OH] [V, vanadate]	200	7800
